Reference: ChEMBL document CHEMBL4800732, “Data for DCP probe TP-040” (2021)
Several values for one entry are separate records, joined by “and”; a condition that tells them apart may be missing. Equal entries are not always repeated. Each block holds one compound with its values, some of them ahead of it.

Legend:
[1] = biological target: T1, 5-hydroxytryptamine receptor 5A (Homo sapiens, UniProt P47898); details: Compound concentration 10.0 uM
[2] = biological target: T2, Alpha-2B adrenergic receptor (Homo sapiens, UniProt P18089); assay: GPCRScan assay: inhibition of Alpha2B; design: radioligand conc. used [nm] 1.5 – 2.0, parental cells HEKT
T2 sequence (P18089 whole entry): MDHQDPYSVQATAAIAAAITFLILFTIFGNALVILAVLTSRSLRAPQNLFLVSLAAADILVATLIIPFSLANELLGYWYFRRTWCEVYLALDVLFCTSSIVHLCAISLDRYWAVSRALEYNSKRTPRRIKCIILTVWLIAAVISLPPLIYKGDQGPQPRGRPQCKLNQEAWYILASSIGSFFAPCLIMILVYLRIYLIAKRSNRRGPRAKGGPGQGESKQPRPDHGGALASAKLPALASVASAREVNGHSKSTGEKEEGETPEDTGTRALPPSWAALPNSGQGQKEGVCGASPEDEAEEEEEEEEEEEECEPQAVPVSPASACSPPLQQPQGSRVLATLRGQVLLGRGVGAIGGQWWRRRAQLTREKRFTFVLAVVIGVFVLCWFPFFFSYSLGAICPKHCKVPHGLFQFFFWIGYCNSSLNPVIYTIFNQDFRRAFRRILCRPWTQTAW

[3] = biological target: Beta-2 adrenergic receptor (Homo sapiens) (UniProt P07550); details: Compound concentration 10.0 uM
Chain of Beta-2 adrenergic receptor (Homo sapiens) (P07550 whole entry, looked up): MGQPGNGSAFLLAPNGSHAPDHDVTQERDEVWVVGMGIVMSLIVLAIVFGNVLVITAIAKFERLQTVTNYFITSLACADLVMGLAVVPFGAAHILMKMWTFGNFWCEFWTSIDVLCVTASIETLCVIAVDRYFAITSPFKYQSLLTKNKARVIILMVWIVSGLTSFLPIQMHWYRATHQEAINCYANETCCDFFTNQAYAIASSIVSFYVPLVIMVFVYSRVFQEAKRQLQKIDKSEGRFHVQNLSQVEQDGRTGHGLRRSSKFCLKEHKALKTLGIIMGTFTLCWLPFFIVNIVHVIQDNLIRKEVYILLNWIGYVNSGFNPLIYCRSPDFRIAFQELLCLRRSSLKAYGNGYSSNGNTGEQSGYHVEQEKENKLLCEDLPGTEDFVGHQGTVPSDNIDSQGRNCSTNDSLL

[4] = biological target: T3, 5-hydroxytryptamine receptor 2C (Homo sapiens, UniProt P28335); assay: GPCRScan assay: inhibition of 5-HT2C; design: radioligand conc. used [nm] 1.0 – 2.5, parental cells HEK T
T3 sequence (P28335 whole entry): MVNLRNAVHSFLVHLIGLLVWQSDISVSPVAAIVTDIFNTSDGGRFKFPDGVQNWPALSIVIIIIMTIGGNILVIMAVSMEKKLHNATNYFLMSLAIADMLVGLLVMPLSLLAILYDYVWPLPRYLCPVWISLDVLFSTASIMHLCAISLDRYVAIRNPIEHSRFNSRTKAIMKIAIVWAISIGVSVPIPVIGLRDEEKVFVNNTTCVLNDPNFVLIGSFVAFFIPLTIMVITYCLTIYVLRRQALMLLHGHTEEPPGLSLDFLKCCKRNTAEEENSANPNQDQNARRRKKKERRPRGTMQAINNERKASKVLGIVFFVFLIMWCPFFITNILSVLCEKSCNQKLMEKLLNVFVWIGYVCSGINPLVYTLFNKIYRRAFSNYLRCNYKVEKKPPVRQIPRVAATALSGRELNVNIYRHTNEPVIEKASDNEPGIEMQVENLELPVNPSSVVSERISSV

[5] = biological target: 5-hydroxytryptamine receptor 2B (Homo sapiens, UniProt P41595); details: Compound concentration 10.0 uM
Chain of 5-hydroxytryptamine receptor 2B (P41595 whole entry): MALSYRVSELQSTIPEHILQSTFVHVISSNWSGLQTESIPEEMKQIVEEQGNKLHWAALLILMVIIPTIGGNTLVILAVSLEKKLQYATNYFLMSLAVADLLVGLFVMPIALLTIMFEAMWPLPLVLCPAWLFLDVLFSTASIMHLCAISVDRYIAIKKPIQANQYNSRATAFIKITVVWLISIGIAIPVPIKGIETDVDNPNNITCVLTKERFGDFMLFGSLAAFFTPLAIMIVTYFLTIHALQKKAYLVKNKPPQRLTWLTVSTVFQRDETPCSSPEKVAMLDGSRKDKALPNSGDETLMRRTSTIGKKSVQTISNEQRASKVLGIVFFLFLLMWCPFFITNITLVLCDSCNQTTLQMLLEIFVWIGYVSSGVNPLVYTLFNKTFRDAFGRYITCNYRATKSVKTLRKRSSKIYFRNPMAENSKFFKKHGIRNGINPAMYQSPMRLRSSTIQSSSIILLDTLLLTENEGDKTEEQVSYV

[6] = biological target: Alpha-2C adrenergic receptor (Homo sapiens) (UniProt P18825); details: Compound concentration 10.0 uM
Chain of Alpha-2C adrenergic receptor (Homo sapiens) (P18825 whole entry): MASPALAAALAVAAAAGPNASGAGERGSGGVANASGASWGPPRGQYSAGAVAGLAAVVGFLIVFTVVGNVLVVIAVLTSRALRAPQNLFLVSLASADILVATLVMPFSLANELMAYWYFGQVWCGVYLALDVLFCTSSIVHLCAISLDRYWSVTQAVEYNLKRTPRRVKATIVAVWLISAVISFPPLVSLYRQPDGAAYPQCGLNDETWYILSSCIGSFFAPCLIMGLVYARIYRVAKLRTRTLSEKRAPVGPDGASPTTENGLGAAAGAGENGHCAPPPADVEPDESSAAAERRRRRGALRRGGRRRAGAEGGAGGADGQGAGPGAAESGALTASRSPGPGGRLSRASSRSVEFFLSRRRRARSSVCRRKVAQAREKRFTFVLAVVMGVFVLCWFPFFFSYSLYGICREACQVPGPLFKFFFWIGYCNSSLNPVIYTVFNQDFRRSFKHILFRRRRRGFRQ

[7] = biological target: Beta-hexosaminidase subunit beta (Homo sapiens, UniProt P07686); assay: Enzymatic HEXB assay
[8] = biological target: Muscarinic acetylcholine receptor M1 (Homo sapiens) (UniProt P11229); details: Compound concentration 10.0 uM
Chain of Muscarinic acetylcholine receptor M1 (Homo sapiens) (P11229 whole entry): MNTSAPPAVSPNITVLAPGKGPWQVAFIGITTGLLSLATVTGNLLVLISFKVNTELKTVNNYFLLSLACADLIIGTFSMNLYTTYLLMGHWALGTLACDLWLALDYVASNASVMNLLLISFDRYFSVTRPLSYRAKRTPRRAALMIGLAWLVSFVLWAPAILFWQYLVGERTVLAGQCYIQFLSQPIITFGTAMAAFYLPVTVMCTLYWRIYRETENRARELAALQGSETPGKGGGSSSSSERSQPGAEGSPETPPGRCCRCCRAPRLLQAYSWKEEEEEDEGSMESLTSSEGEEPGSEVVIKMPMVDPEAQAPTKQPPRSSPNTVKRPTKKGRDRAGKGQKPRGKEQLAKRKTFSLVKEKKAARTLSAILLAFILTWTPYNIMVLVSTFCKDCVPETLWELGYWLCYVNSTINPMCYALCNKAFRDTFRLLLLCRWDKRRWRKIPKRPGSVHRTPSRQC

[9] = biological target: Alpha-2B adrenergic receptor (Homo sapiens) (UniProt P18089); details: Compound concentration 10.0 uM
[10] = biological target: T4, 5-hydroxytryptamine receptor 2A (Homo sapiens, UniProt P28223); details: Compound concentration 10.0 uM
T4 sequence (P28223 whole entry): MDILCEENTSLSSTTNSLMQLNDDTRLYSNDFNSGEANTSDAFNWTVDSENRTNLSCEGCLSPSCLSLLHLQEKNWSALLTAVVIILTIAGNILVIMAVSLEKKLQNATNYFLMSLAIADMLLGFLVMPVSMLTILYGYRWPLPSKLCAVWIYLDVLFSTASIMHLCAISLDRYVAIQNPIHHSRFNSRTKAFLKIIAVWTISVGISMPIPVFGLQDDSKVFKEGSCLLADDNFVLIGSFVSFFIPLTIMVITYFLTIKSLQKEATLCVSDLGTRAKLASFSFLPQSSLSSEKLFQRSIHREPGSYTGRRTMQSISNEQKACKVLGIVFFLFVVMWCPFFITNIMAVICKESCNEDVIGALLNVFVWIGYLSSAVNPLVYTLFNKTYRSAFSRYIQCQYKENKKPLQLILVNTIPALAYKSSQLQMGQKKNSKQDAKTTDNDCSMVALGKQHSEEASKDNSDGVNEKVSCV

[11] = biological target: Alpha-1A adrenergic receptor (Homo sapiens) (UniProt P35348); details: Compound concentration 10.0 uM
Chain of Alpha-1A adrenergic receptor (Homo sapiens) (P35348 whole entry): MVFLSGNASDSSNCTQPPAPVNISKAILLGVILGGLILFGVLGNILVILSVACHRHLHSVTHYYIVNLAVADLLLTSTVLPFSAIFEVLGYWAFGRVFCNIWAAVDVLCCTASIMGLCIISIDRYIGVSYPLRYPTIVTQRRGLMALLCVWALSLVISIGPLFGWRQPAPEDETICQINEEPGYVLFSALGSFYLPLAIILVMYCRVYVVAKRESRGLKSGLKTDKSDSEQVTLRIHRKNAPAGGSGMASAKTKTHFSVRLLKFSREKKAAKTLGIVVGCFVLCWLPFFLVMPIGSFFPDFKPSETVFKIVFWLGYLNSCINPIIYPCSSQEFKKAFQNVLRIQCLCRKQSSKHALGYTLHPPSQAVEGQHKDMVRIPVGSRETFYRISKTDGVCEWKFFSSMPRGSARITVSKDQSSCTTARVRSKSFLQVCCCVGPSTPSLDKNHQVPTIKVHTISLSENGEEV

[12] = biological target: GABA-A receptor; anion channel; assay: GPCRScan assay: inhibition of GABAA/BZP; type: protein-complex assay, Rattus norvegicus; design: radioligand conc. used [nm] 0.6 – 4.0, parental cells brain tissue
[13] = biological target: D(1B) dopamine receptor (Homo sapiens) (UniProt P21918); details: Compound concentration 10.0 uM
[14] = biological target: Sigma intracellular receptor 2 (Homo sapiens, UniProt Q5BJF2); assay: GPCRScan assay: inhibition of Sigma 2; design: radioligand conc. used [nm] 5.0, parental cells HEKT
Chain of Sigma intracellular receptor 2 (Q5BJF2 whole entry): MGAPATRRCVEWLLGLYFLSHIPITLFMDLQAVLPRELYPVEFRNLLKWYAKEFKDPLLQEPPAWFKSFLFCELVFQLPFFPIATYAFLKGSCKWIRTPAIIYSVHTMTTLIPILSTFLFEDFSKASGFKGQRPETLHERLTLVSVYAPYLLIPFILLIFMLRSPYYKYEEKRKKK

[15] = biological target: Protein O-GlcNAcase (Homo sapiens, UniProt O60502); assay: Enzymatic OGA assay
[16] = biological target: Sodium-dependent dopamine transporter (Homo sapiens, UniProt Q01959); assay: GPCRScan assay: inhibition of DAT; design: radioligand conc. used [nm] 3.6 – 16.0, parental cells stable HEK
Chain of Sodium-dependent dopamine transporter (Q01959 whole entry): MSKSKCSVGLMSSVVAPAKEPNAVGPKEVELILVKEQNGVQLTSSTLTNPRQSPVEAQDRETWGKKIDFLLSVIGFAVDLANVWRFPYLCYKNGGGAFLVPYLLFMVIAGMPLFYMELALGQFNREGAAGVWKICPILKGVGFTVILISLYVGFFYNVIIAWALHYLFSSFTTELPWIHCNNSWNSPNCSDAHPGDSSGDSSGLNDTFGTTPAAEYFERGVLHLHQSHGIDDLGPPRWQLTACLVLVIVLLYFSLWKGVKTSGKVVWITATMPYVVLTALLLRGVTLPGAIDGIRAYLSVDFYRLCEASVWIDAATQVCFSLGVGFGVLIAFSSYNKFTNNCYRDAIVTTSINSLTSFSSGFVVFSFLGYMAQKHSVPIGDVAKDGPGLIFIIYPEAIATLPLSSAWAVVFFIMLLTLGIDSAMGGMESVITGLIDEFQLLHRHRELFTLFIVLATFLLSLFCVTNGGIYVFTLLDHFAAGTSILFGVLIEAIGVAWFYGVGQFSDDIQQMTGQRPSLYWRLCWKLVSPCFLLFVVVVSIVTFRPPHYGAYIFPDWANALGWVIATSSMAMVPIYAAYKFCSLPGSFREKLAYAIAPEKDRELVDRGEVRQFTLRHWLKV

[17] = biological target: T5, Histamine H4 receptor (Homo sapiens, UniProt Q9H3N8); assay: GPCRScan assay: inhibition of H4; design: radioligand conc. used [nm] 1.0 – 5.0, parental cells HEK T
[18] = biological target: Histamine H3 receptor (Homo sapiens, UniProt Q9Y5N1); assay: GPCRScan assay: inhibition of H3; design: radioligand conc. used [nm] 0.5 – 1.0, parental cells HEK Flp-In
Chain of Histamine H3 receptor (Q9Y5N1 whole entry): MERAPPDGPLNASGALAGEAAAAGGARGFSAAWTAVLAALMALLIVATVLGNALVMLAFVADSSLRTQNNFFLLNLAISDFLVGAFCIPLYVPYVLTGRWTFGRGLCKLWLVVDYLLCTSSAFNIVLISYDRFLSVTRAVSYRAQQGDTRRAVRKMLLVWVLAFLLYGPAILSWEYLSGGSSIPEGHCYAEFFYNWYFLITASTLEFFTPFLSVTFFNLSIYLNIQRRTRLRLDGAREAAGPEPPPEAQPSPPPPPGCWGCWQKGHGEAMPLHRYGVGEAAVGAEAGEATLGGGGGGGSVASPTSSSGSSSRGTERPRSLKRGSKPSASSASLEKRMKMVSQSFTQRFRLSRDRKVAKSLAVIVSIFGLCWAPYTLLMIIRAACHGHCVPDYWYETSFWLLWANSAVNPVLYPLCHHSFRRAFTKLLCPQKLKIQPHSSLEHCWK

[19] = biological target: Sigma non-opioid intracellular receptor 1 (Homo sapiens, UniProt Q99720); assay: GPCRScan assay: inhibition of Sigma 1; design: radioligand conc. used [nm] 4.0 – 5.0, parental cells HEKT
Chain of Sigma non-opioid intracellular receptor 1 (Q99720 whole entry): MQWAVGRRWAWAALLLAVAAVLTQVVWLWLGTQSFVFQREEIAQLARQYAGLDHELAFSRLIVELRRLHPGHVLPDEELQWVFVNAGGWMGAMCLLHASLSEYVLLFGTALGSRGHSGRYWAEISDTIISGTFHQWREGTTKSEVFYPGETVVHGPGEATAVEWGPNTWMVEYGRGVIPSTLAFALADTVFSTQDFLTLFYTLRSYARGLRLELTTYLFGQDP

[20] = biological target: T5, Histamine H4 receptor; details: Compound concentration 10.0 uM
[21] = biological target: Beta-3 adrenergic receptor (Homo sapiens) (UniProt P13945); details: Compound concentration 10.0 uM
[22] = biological target: 5-hydroxytryptamine receptor 6 (Homo sapiens, UniProt P50406); assay: GPCRScan assay: inhibition of 5-HT6; design: radioligand conc. used [nm] 2.0 – 4.0, parental cells stable HEK
[23] = biological target: Histamine H2 receptor (Homo sapiens, UniProt P25021); assay: GPCRScan assay: inhibition of H2; design: radioligand conc. used [nm] 0.02 – 0.05, parental cells Stable HEK
Chain of Histamine H2 receptor (P25021 whole entry): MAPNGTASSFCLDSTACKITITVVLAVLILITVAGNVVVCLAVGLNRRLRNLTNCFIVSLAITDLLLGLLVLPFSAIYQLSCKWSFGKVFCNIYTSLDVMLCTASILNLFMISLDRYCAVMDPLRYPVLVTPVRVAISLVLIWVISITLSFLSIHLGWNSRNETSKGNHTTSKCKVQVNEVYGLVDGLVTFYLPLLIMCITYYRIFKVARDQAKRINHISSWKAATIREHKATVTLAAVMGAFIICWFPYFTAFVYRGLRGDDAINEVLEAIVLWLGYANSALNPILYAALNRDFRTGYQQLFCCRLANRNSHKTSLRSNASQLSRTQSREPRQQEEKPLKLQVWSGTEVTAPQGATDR

[24] = biological target: 5-hydroxytryptamine receptor 7 (Homo sapiens, UniProt P34969); assay: GPCRScan assay: inhibition of 5-HT7A; design: radioligand conc. used [nm] 5.0 – 6.0, parental cells Stable HEK
[25] = biological target: T4, 5-hydroxytryptamine receptor 2A; assay: GPCRScan assay: inhibition of 5-HT2A; design: radioligand conc. used [nm] 1.2 – 2.4, parental cells HEKT
[26] = biological target: T1, 5-hydroxytryptamine receptor 5A; assay: GPCRScan assay: inhibition of 5-HT5A; design: radioligand conc. used [nm] 2.0 - 3.3, parental cells Flp-In CHO

T1 sequence (P47898 whole entry): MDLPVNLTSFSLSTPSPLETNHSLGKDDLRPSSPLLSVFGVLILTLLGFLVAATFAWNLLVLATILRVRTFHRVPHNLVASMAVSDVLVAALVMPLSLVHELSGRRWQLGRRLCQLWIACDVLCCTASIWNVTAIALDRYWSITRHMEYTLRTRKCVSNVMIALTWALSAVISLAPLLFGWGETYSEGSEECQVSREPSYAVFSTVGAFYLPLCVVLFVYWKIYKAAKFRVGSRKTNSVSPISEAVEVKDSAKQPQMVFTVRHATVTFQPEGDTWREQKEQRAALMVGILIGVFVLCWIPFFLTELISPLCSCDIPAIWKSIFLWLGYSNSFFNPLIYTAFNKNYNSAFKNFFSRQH

- inhibition [1]: 24%
- Ki ([2]; read-out: Ki): 2570 nM
- inhibition [3]: -3.61%
- Ki ([4]; read-out: Ki): 374 nM
- Ki ([4]; read-out: pKi (converted)): 363 nM
- inhibition [5]: 81.8%
- inhibition [6]: 51.8%
- IC50 [7]: > 10000 nM (not active)
- inhibition [8]: 17.2%
- inhibition [9]: 56.3%
- inhibition [10]: 33.8%
- inhibition [11]: 15.4%
- Ki [12]: 512 nM
- inhibition [13]: 5.03%
SMILES: CC1CCN(c2ccnc(NCc3cn(C)cn3)n2)CC1 [TP-040]

- inhibition [1]: 59.8%
- Ki ([2]; read-out: Ki): 475 nM
- Ki ([2]; read-out: pKi (converted)): 427 nM
- inhibition [3]: -3.49%
- Ki ([4]; read-out: Ki): 267 nM
- Ki ([4]; read-out: pKi (converted)): 257 nM
- inhibition [5]: 91.7%
- inhibition [6]: 96.8%
- Ki ([14]; read-out: Ki): 1460 nM
- Ki ([14]; read-out: pKi (converted)): 1450 nM
- IC50 [15]: > 10000 nM (not active)
- Ki ([16]; read-out: Ki): 865 nM
- Ki ([16]; read-out: pKi (converted)): 832 nM
- Ki ([17]; read-out: Ki): 712 nM and 703 nM
- Ki ([17]; read-out: pKi (converted)): 692 nM
- Ki ([18]; read-out: Ki): 92.8 nM and 99.6 nM
- Ki ([18]; read-out: pKi (converted)): 81.3 nM
- Ki ([19]; read-out: Ki): 125 nM
- Ki ([19]; read-out: pKi (converted)): 123 nM
- inhibition [20]: 82.8%
- inhibition [21]: 2.45%
- inhibition [8]: 18.6%
- inhibition [9]: 98%
- inhibition [10]: 72.9%
- inhibition [11]: 19.2%
- Ki [22]: 606 nM
- Ki ([23]; read-out: Ki): 149 nM
- Ki ([23]; read-out: pKi (converted)): 145 nM
- Ki [24]: 335 nM
- Ki ([25]; read-out: Ki): 758 nM
- Ki ([25]; read-out: pKi (converted)): 692 nM
- Ki ([26]; read-out: Ki): 6130 nM
- Ki ([26]; read-out: pKi (converted)): 5130 nM
SMILES: CN1CCN(c2ccnc(NCCc3ccccc3)n2)CC1 [TP-040n]
